Measured values as given in PubChem BioAssay (NCI).
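Cultured in 96-well plates, cells were exposed to test compound for 48 hours across five concentrations. GI50 = concentration required for 50% inhibition of growth. At the TGI there is no net growth.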

Tests used:
Assay in all cases: growth of human tumour cells (NCI), 48 h
[1] = system: UACC-62 melanoma
[2] = system: KM12 colon
[3] = system: OVCAR-3 ovarian
[4] = system: MDA-MB-435
[5] = system: T-47D breast
[6] = system: NCI/ADR-RES ovarian
[7] = system: A498 renal
[8] = system: OVCAR-4 ovarian
[9] = system: HT29 colon
[10] = system: NCI-H460 lung
[11] = system: MDA-MB-231 breast
[12] = system: SW-620 colon
[13] = system: SF-268 CNS
[14] = system: MALME-3M melanoma
[15] = system: HOP-62 NSCLC
[16] = system: ACHN renal
[17] = system: SN12C renal
[18] = system: HCC-2998 colon
[19] = system: PC-3 prostate
[20] = system: CCRF-CEM leukemia
[21] = system: MOLT-4 leukemia
[22] = system: SK-MEL-28 melanoma
[23] = system: DU-145 prostate
[24] = system: NCI-H226 lung
[25] = system: RXF 393 renal
[26] = system: UO-31 renal
[27] = system: IGROV1 ovarian
[28] = system: U251 CNS
[29] = system: SK-MEL-5 melanoma
[30] = system: OVCAR-5 ovarian
[31] = system: SK-MEL-2 melanoma
[32] = system: RPMI-8226 leukemia
[33] = system: OVCAR-8 ovarian
[34] = system: SK-OV-3 ovarian
[35] = system: CAKI-1 renal
[36] = system: HCT-116 colon
[37] = system: HCT-15 colon
[38] = system: TK-10 renal
[39] = system: BT-549 breast
[40] = system: SNB-19 CNS
[41] = system: A549 NSCLC
[42] = system: HOP-92 NSCLC
[43] = system: UACC-257 melanoma
[44] = system: NCI-H23 lung
[45] = system: HL-60(TB) leukemia
[46] = system: 786-0 renal
[47] = system: SF-539 CNS
[48] = system: NCI-H522 lung
[49] = system: LOX IMVI melanoma
[50] = system: SNB-75 CNS
[51] = system: COLO 205 colon
[52] = system: MCF7 breast
[53] = system: M14 melanoma
[54] = system: HS 578T breast
[55] = system: K-562 leukemia
[56] = system: EKVX NSCLC
[57] = system: SF-295 CNS

## O=c1cc(-c2ccccc2)oc2c1ccc1ccccc12
[1]
  GI50: 12.3 µM
  TGI: > 100 µM
[2]
  GI50: 24.9 µM
  TGI: 89.2 µM
[3]
  GI50: 30.9 µM
  TGI: > 100 µM
[4]
  GI50: 30 µM
  TGI: > 100 µM
[5]
  GI50: 23.9 µM
  TGI: > 100 µM
[6]
  GI50: 30.5 µM
  TGI: > 100 µM
[7]
  GI50: 11.1 µM
  TGI: 44.1 µM
[8]
  GI50: 21.2 µM
  TGI: > 100 µM
[9]
  GI50: 25.6 µM
  TGI: > 100 µM
[10]
  GI50: 28.6 µM
  TGI: > 100 µM
[11]
  GI50: 12.5 µM
  TGI: 67.9 µM
[12]
  GI50: 49.2 µM
  TGI: > 100 µM
[13]
  GI50: 37.3 µM
  TGI: > 100 µM
[14]
  GI50: 29.1 µM
  TGI: 72.1 µM
[15]
  GI50: 29.6 µM
  TGI: > 100 µM
[16]
  GI50: 17.6 µM
  TGI: 90 µM
[17]
  GI50: 19.6 µM
  TGI: > 100 µM
[18]
  GI50: 56.7 µM
  TGI: > 100 µM
[19]
  GI50: 23.1 µM
  TGI: > 100 µM
[20]
  GI50: 22.8 µM
  TGI: 73.8 µM
[21]
  GI50: 23.5 µM
  TGI: 51.5 µM
[22]
  GI50: 29.3 µM
  TGI: > 100 µM
[23]
  GI50: 30.6 µM
  TGI: > 100 µM
[24]
  GI50: 18.9 µM
  TGI: 59.5 µM
[25]
  GI50: 24.1 µM
  TGI: 64.4 µM
[26]
  GI50: 8.55 µM
  TGI: > 100 µM
[27]
  GI50: 14.1 µM
  TGI: 55.8 µM
[28]
  GI50: 17.1 µM
  TGI: > 100 µM
[29]
  GI50: 20.2 µM
  TGI: 65.3 µM
[30]
  GI50: 50.7 µM
  TGI: > 100 µM
[31]
  GI50: 74.7 µM
  TGI: > 100 µM
[32]
  GI50: 21.7 µM
  TGI: 70.2 µM
[33]
  GI50: 26 µM
  TGI: > 100 µM
[34]
  GI50: 19.3 µM
  TGI: 54.1 µM
[35]
  GI50: 18 µM
  TGI: > 100 µM
[36]
  GI50: 20.3 µM
  TGI: > 100 µM
[37]
  GI50: 30 µM
  TGI: > 100 µM
[38]
  GI50: 28.2 µM
  TGI: 65 µM
[39]
  GI50: 21 µM
  TGI: 55.8 µM
[40]
  GI50: 6.1 µM
  TGI: > 100 µM
[41]
  GI50: 23.8 µM
  TGI: > 100 µM
[42]
  GI50: 9.25 µM
  TGI: 45.5 µM
[43]
  GI50: 54.8 µM
  TGI: > 100 µM
[44]
  GI50: 32.6 µM
  TGI: > 100 µM
[45]
  GI50: 23.9 µM
  TGI: 56.8 µM
[46]
  GI50: 27.9 µM
  TGI: > 100 µM
[47]
  GI50: 18.6 µM
  TGI: 76.1 µM
[48]
  GI50: 30.5 µM
  TGI: > 100 µM
[49]
  GI50: 21.9 µM
  TGI: > 100 µM
[50]
  GI50: 11.6 µM
  TGI: 45.9 µM
[51]
  GI50: 24.2 µM
  TGI: > 100 µM
[52]
  GI50: 13.9 µM
  TGI: > 100 µM
[53]
  GI50: 61.1 µM
  TGI: > 100 µM
[54]
  GI50: 23.4 µM
  TGI: 83.2 µM
[55]
  GI50: 49.5 µM
  TGI: > 100 µM

## O=C(c1ccccc1)C1OC1C(=O)c1ccccc1 (configuration not stated)
[1]
  GI50: 2.91 µM
  TGI: 15.9 µM
[2]
  GI50: 3.51 µM
  TGI: 11.9 µM
[3]
  GI50: 1.77 µM
  TGI: 6.7 µM
[4]
  GI50: 2.86 µM
  TGI: > 100 µM
[5]
  GI50: 3.51 µM
  TGI: > 100 µM
[6]
  GI50: 1.88 µM
  TGI: > 100 µM
[7]
  GI50: 19.7 µM
  TGI: > 100 µM
[8]
  GI50: 3.84 µM
  TGI: 26.3 µM
[9]
  GI50: 3.19 µM
  TGI: 13.2 µM
[10]
  GI50: 3.93 µM
  TGI: > 100 µM
[11]
  GI50: 3.31 µM
  TGI: > 100 µM
[56]
  GI50: 6.68 µM
  TGI: > 100 µM
[12]
  GI50: 3.11 µM
  TGI: 16.1 µM
[13]
  GI50: 2.93 µM
  TGI: 19.1 µM
[14]
  GI50: 3.24 µM
  TGI: 66 µM
[16]
  GI50: 3.67 µM
  TGI: 15.7 µM
[17]
  GI50: 3.22 µM
  TGI: 63.4 µM
[18]
  GI50: 2.94 µM
  TGI: 10.3 µM
[19]
  GI50: 4.72 µM
  TGI: 25.7 µM
[22]
  GI50: 4.28 µM
  TGI: 44.5 µM
[23]
  GI50: 1.32 µM
  TGI: 4.28 µM
[24]
  GI50: 5.24 µM
  TGI: > 100 µM
[25]
  GI50: 2.37 µM
  TGI: 10.2 µM
[26]
  GI50: 8.09 µM
  TGI: 85.6 µM
[57]
  GI50: 5.03 µM
  TGI: 37.3 µM
[27]
  GI50: 3.56 µM
  TGI: 15 µM
[28]
  GI50: 7.58 µM
  TGI: 37.1 µM
[29]
  GI50: 3.46 µM
  TGI: 14.3 µM
[30]
  GI50: 3.86 µM
  TGI: 25.2 µM
[31]
  GI50: 2.66 µM
  TGI: 9.53 µM
[32]
  GI50: 3.34 µM
  TGI: 11.6 µM
[33]
  GI50: 4.02 µM
  TGI: > 100 µM
[34]
  GI50: 7.98 µM
  TGI: > 100 µM
[35]
  GI50: 2.82 µM
  TGI: 23.4 µM
[36]
  GI50: 2.09 µM
  TGI: 11.4 µM
[37]
  GI50: 2.61 µM
  TGI: 12.2 µM
[38]
  GI50: 1.86 µM
  TGI: 8.37 µM
[39]
  GI50: 3.28 µM
  TGI: 14.2 µM
[40]
  GI50: 14.1 µM
  TGI: > 100 µM
[41]
  GI50: 4.17 µM
  TGI: 39.2 µM
[42]
  GI50: 1.96 µM
  TGI: 6.09 µM
[43]
  GI50: 5.75 µM
  TGI: 29.6 µM
[44]
  GI50: 2.33 µM
  TGI: 10.8 µM
[46]
  GI50: 4.35 µM
  TGI: 84.9 µM
[47]
  GI50: 3.77 µM
  TGI: 12.6 µM
[48]
  GI50: 0.323 µM
  TGI: 2.24 µM
[49]
  GI50: 2.75 µM
  TGI: 11.7 µM
[51]
  GI50: 4.94 µM
  TGI: 15.4 µM
[52]
  GI50: 2.34 µM
  TGI: 14.7 µM
[53]
  GI50: 2.78 µM
  TGI: 11.9 µM
[54]
  GI50: 3.01 µM
  TGI: > 100 µM
